Read-outs that look alike come from different tables or passages of the source.
Key:
[1] = test system: vascular endothelial function; conditions: in vivo, po
[2] = test system: blood leukocytes (M1, M2 macrophages, TNFα+ neutrophils); conditions: single 2 g dose
Procedure: Blood was taken at all time points for all control subjects. No data was excluded from the analysis. Flow cytometric analysis of heparinized whole blood was performed as described previously. Briefly, cells were incubated with antibodies for surface markers (15 minutes on ice in dark) before incubation with antibodies against intracellular cytokines and factors (after permeabilization for 15 minutes using fix/Perm cocktail, eBioscience, San Diego USA) including, CD11b, CD68, TNFα (for M1 macrophages), CD11b, CD68, CD206 and IL-10 (for M2 macrophages) (purchased from BD BioSciences) and CD16 and TNFα (for neutrophils, from eBioscience, USA). Cells were then washed and run through a four-color flow cytometer (FACS Calibur, BD Biosciences), and data were collected using CellQuest software. Samples were double-stained with control IgG and cell markers to assess any spillover signal of fluorochromes. Proper compensation was set to ensure the median fluorescence intensities of negative and positive cells were identical and then was used to gate the population. Gating excluded dead cells and debris using forward and side scatter plots.

[3] = 0.1M in drinking water
Procedure: Urine collection: For urine collection rats were placed in rat metabolic cages for 24 hours (Nalgene, Rochester, N.Y.). Urine was collected and weighed for volume determination. Up to 10 mL of urine was stored at −80° C. for later analysis. All urinary data are presented as 24 hour urinary excretion.
Electrolytes: Urinary Na, K and Cl measurements were obtained using an electrolyte analyzer (Easylite; Medica Co, Bedford Mass.). Samples were diluted 1:10, 1 part urine to 9 parts Easylyte Urine Diluent as per the manufactures instructions.
(§1) Rat protocols: Dahl SS rats: All rats were maintained on low salt chow with ad libitum water (tap water). […] Following four days of low salt (LS) feeding, rats were placed on an 8% HS diet (AIN76A 8%; Dyets) for two weeks. 24 hour urine collections were obtained on day 3 of low salt and day 7 and day 14 of high salt feeding if applicable. Following 14 days of HS feeding, rats were anesthetized with isoflurane (2-5%) and tissue harvested for analysis.

splenic macrophages = conditions: 3 days, 0.1M in drinking water (unpublished data)
[4] = test system: T-regulatory cells (FOXP3+ T-regs), TH17 cells; assay: Circulating T-regulatory and TH17 cells in rats; assay type: in vivo
IL-6 = test system: IL-6
Procedure: (§2) IL-6 and TNF-α were determined in plasma samples using the microfluidic simple plex cartridge system following manufacturer specifications. Briefly, Simple Plex uses 25 μL of serum for measurement of the […] cytokines. The work flow of the Simple Plex assays is: (a) a test cartridge is primed with samples with each sample split into channels (i.e., TNF-α and IL-6 to react with their respective antibodies immobilized on glass nanoreactors; (b) after sample incubation, circuits in the cartridge are cleaned with wash buffer, and biotinylated detection antibody solutions are individually pumped into their respective channels to bind to protein analyte captured on the GNRs; (c) after incubation, unbound detection antibodies are washed away and a detection solution (i.e., streptavidin DyLight 650) is flowed into all channels to conjugate with the biotinylated detection antibodies; (d) the detection solution is washed away; detection fluorophores (i.e., DyLight 650) are excited with a 631 nm laser; and the fluorescence signals are read with a charge-coupled device (CCD) camera. The signals are used for quantification based on master calibrator curves provided by the manufacturer.

TNF-α = test system: TNF-α
Procedure: as §2

[5] = for Glucose / HCO3− / Hct / pCO2 / pH / pO2: arterial blood, 0.1M NaHCO3 in drinking water
Text: Arterial blood gas measurements: Dahl SS rats were anesthetized (2-5% isoflurane) and the left femoral artery was catheterized. Surgically implanted catheters were then tunneled under the skin and exposed between the shoulder blades. Catheters were protected by a light wire spring attached to a swivel (Instech Laboratories Inc, Plymouth Meeting, Pa.), which allows free 360-degree movement of the animal. Rats were individually housed and allowed to recover for 1 week before beginning experimental measurements. Catheters were filled with heparinized saline (30 U/mL) and connected to an infusion pump (Phd2000, Harvard Apparatus, Holliston, Mass.). Infusions of heparinized saline were maintained at 100 μL/hr over the course of the protocol. 0.2 mL arterial blood samples were taken prior to placing rats on treated water, on day 3 of low salt feeding and on day 7 of high salt feeding by disconnecting the catheter from the infusion pump proximal to emergence of the catheter from the rat and drawing arterial blood into a heparinized 1 mL syringe. Arterial blood gas measurements were performed on a Rapidpoint 4055 Blood gas analyzer (Seimens AG, Munich Germany) within 20 minutes of taking the sample. Arterial blood gas measurements on day 14 of HS feeding were taken at the time of sacrifice by left ventricular puncture in anesthetized (2-5% isoflurane) rats.
as §1
Blood gas/electrolytes: In a parallel study, rats were implanted with a femoral arterial catheter to allow arterial blood sampling.

[6] = compared to vehicle (0.1M NaCl)
[7] = healthy rats, 3 days of drinking, 0.1M

**Q.** Which FMD [1] does the source give for `O=C([O-])O.[Na+]` [NaHCO3, sodium bicarbonate] here?
**A.** The FMD was “improves”.

**Q.** What about the FMD/Shear [1] of the same compound?
**A.** The FMD/Shear was “improves”.

**Q.** What about the “M1 macrophages in blood” value ([2]; 1-3 hours, compared to NaCl, p=0.0004) of the same compound?
**A.** Its value is “reduced to a significantly greater degree”.

**Q.** What about the “TNFα positive neutrophils in blood” value ([2]; 1-3 hours, compared to NaCl, p=0.0146) of the same compound?
**A.** Its value is “reduced to a significantly greater degree”.

**Q.** What about the “percentage of blood leukocytes identified as M2 macrophages” value ([2]; change from baseline compared to NaCl, p=0.00165) of the same compound?
**A.** Its value is “increased”.

**Q.** What about the “urinary K excretion” value [3, 6] of the same compound?
**A.** The value was “no effect”.

**Q.** And the “urinary Na excretion” value [3, 6]?
**A.** Its value is “no effect”.

**Q.** What about the “urinary Cl excretion” value ([3]; compared to vehicle, p=0.03) of the same compound?
**A.** The value was “significantly lower”.

**Q.** What about the M2 macrophages (splenic macrophages) of the same compound?
**A.** Its M2 macrophages is “no effect”.

**Q.** And the splenic macrophages (splenic macrophages)?
**A.** Its splenic macrophages is “increased”.

**Q.** And the “anti-inflammatory T-regulatory cells” value [4, 7]?
**A.** The value was “robust but identical increases”.

**Q.** And the “pro-inflammatory TH17 cells” value [4, 7]?
**A.** Its value is “decreases”.

**Q.** What about the “circulating anti-inflammatory T cells (FOXP3+ T-regs)” value ([4]; rats, 4 days in drinking water) of the same compound?
**A.** Its value is “significantly increased”.

**Q.** What about the IL-6 (IL-6; ingestion for 2 weeks) of the same compound?
**A.** Its IL-6 is “reduces”.

**Q.** And the IL-6 (IL-6; single dose, 60 minutes)?
**A.** Its IL-6 is “reduces”.

**Q.** What about the TNF-α (TNF-α; ingestion for 2 weeks) of the same compound?
**A.** The TNF-α was “reduces”.

**Q.** And the TNF-α (TNF-α; single dose, 60 minutes)?
**A.** The TNF-α was “reduces”.

**Q.** And the “markers of plasma acid base status (pH, pCO2, HCO3−)” value ([5]; across the course of the study, versus vehicle)?
**A.** Its value is “no significant difference”.

**Q.** And the Glucose ([5]; Day 3 LS)?
**A.** The Glucose was 195 ± 25 mg/dL.

**Q.** What about the “HCO3−” value ([5]; Day 3 LS) of the same compound?
**A.** The value was 25.2 ± 0.7 mM.

**Q.** What about the Hct ([5]; Day 3 LS) of the same compound?
**A.** Its Hct is 40 ± 0%.

**Q.** What about the pCO2 ([5]; Day 3 LS) of the same compound?
**A.** Its pCO2 is 38.3 ± 1.1.

**Q.** And the pH ([5]; Day 3 LS)?
**A.** Its pH is 7.43 ± 0.01.

**Q.** And the pO2 ([5]; Day 3 LS)?
**A.** The pO2 was 93.5 ± 2.4.

**Q.** What about the Glucose ([5]; Day 7 HS) of the same compound?
**A.** Its Glucose is 160 ± 16 mg/dL.

**Q.** What about the “HCO3−” value ([5]; Day 7 HS) of the same compound?
**A.** Its value is 26.9 ± 0.6 mM.

**Q.** What about the Hct ([5]; Day 7 HS) of the same compound?
**A.** The Hct was 39 ± 2%.

**Q.** What about the pCO2 ([5]; Day 7 HS) of the same compound?
**A.** The pCO2 was 39.4 ± 3.2.

**Q.** And the pH ([5]; Day 7 HS)?
**A.** The pH was 7.46 ± 0.02.

**Q.** And the pO2 ([5]; Day 7 HS)?
**A.** The pO2 was 113 ± 16.

**Q.** And the Glucose ([5]; Day 14 HS)?
**A.** Its Glucose is 235.4 ± 35 mg/dL.

**Q.** And the “HCO3−” value ([5]; Day 14 HS)?
**A.** Its value is 26.1 ± 1.0 mM.

**Q.** And the Hct ([5]; Day 14 HS)?
**A.** The Hct was 41 ± 2%.

**Q.** And the pCO2 ([5]; Day 14 HS)?
**A.** Its pCO2 is 37.4 ± 4.9.

**Q.** And the pH ([5]; Day 14 HS)?
**A.** The pH was 7.46 ± 0.03.

**Q.** What about the pO2 ([5]; Day 14 HS) of the same compound?
**A.** Its pO2 is 88.7 ± 8.5.

— US11324774B2, “Compositions of oral alkaline salts and metabolic acid inducers and uses thereof” (Augusta University Research Institute, Inc., priority 2018, dated 2022)
